# Target: IDO (Homo sapiens (Human), UniProt P14902)
# Assay: Kynurenine assay in IFN-γ-stimulated Hela cells
# Assay type: cell-based
# Details: 20 h, read-out: Hela Kyurenine (IC50)
# Procedure: Reagents: Hela cells (ATCC, CCL-2)
# IFNg (R&D, 28-IF-100)—resuspend at 10 ug/mL in PBS with 0.1% BSA 30% TCA
# Ehrlich reagent (2% w/v p-dimethylaminobenzaldehyde in glacial acetic acid)
# Cell Lines and Culture Conditions
# Hela cancer cell lines were acquired from the American Type Culture Collection. Cells were maintained in phenol red free-RPMI1640 medium containing high glucose and L-glutamine (Invitrogen) supplemented with 10% fetal bovine serum (FBS; Invitrogen). Cell cultures were incubated at 37° C., 5% CO2, and 100% humidity.
# Cell Treatment and Kynurenine Assay
# Hela cells were seeded on 96-well plates (40,000 cells per well) and allowed to adhere for 5-6 hours. Cells were then treated with vehicle (DMSO) or with IDO inhibitor at a top dose of 30 μM (3-fold dilution all the way down to 1.5 nM). A final concentration of 100 ng/mL of human recombinant IFN-γ (R&D, 28-IF-100) was immediately added to the cells to stimulate IDO expression. Treated cells were then incubated for 20 hours at 37° C. At the end of the 20 h incubation, reactions were terminated by the addition of 30% TCA to each well. Plates were incubated for 30 minutes at 50° C. to hydrolyze N-formylkynurenine to kynurenine. Cells were centrifuged 10 minutes at 2400 rpm. 100 ul of supernatants were transferred to new 96 flat well plates and mixed with 100 ul Ehrlich reagent. The resulting solution was incubated 10 minutes at RT. Absorbance at 490 nm was read using Spectra Max 384 (Molecular Devices).
# Chain of IDO (P14902 whole entry): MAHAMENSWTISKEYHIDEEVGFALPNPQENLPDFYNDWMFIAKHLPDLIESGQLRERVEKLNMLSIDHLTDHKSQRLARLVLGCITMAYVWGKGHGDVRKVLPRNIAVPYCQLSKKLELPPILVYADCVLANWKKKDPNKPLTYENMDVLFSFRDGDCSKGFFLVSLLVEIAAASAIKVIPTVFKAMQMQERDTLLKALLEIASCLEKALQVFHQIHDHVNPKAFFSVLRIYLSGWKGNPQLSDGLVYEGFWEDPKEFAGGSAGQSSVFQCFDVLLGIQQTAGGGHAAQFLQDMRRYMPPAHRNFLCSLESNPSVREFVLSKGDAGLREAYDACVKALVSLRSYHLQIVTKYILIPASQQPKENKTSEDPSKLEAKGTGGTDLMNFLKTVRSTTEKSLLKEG
row,Molecule,IC50 [nM]
1,"CC(C)(C)c1ccccc1Oc1ccc(-c2ccc(C(=O)O)cc2)cc1NC(=O)Nc1ccc(C(F)(F)F)cc1 [Example 209, 4′-(2-tert-butylphenoxy)-3′-(3-(4-(trifluoromethyl)phenyl)ureido) biphenyl-4-carboxylic acid]",1740
2,"COc1ccc(-c2ccc(Oc3ccccc3Cl)c(NC(=O)Nc3ccccc3C)c2)cc1C(=O)O [Example 53, 4′-(2-chlorophenoxy)-4-methoxy-3′-(3-o-tolylureido)biphenyl-3-carboxylic acid]",2180
3,"CC(C)(C)c1ccccc1Oc1ccc(-c2cc(F)cc(C(=O)O)c2)cc1NC(=O)Nc1ccccc1Cl [Example 253, 4′-(2-tert-butylphenoxy)-3′-(3-(2-chlorophenyl)ureido)-5-fluorobiphenyl-3-carboxylic acid]",1100
4,"COc1ccc(-c2ccc(Oc3ccccc3C(C)(C)C)c(NC(=O)Nc3cccc(C#N)c3)c2)cc1C(=O)O [Example 108, 4′-(2-(tert-butyl)phenoxy)-3′-(3-(3-cyanophenyl)ureido)-4-methoxy-[1,1′-biphenyl]-3-carboxylic acid]",720
5,"O=C(Nc1ccc(C(F)(F)F)cc1)Nc1cc(-c2ccc(C(=O)O)c(Cl)c2)ccc1Oc1ccccc1C(F)(F)F [Example 207, 3-chloro-4′-(2-(trifluoromethyl)phenoxy)-3′-(3-(4-(trifluoromethyl)phenyl)ureido) biphenyl-4-carboxylic acid]",1230
6,"O=C(Nc1ccccc1Cl)Nc1cc(-c2cccc(C(=O)O)c2)ccc1Oc1ccc(Cl)cc1 [Example 242, 4′-(4-chlorophenoxy)-3′-(3-(2-chlorophenyl)ureido)biphenyl-3-carboxylic acid]",1150
7,"Cc1cccc(NC(=O)Nc2cc(-c3cccc(C(=O)O)c3)ccc2Oc2ccc(Cl)cc2)c1 [Example 249, 4′-(4-chlorophenoxy)-3′-(3-m-tolylureido) biphenyl-3-carboxylic acid]",2550
8,"Cc1ccc(NC(=O)Nc2cc(-c3ccc(C(=O)O)c(F)c3)ccc2Oc2ccccc2C(C)(C)C)cc1 [Example 218, 4′-(2-tert-butylphenoxy)-3-fluoro-3′-(3-p-tolylureido) biphenyl-4-carboxylic acid]",650
9,"CC(C)(C)c1ccccc1Oc1ccc(-c2cccc(C(=O)O)c2)cc1NC(=O)Nc1cccc(Cl)c1 [Example 231, 4′-(2-tert-butylphenoxy)-3′-(3-(3-chlorophenyl)ureido)biphenyl-3-carboxylic acid]",720
10,"CCc1ccc(NC(=O)Nc2cc(-c3ccc(OC)c(C(=O)O)c3)ccc2Oc2ccccc2C(C)(C)C)cc1 [Example 67, 4′-(2-tert-butylphenoxy)-3′-(3-(4-ethylphenyl)ureido)-4-methoxybiphenyl-3-carboxylic acid]",580
11,"CC(C)(C)c1ccccc1Oc1ccc(-c2cc(F)cc(C(=O)O)c2)cc1NC(=O)Nc1ccc(OC(F)(F)F)cc1 [Example 222, 4′-(2-tert-butylphenoxy)-5-fluoro-3′-(3-(4-(trifluoromethoxy)phenyl)ureido) biphenyl-3-carboxylic acid]",1630
12,"Cc1ccc(NC(=O)Nc2cc(-c3ccc(C(=O)O)c(Cl)c3)ccc2Oc2ccccc2C(F)(F)F)cc1 [Example 205, 3-chloro-3′-(3-p-tolylureido)-4′-(2-(trifluoromethyl)phenoxy)biphenyl-4-carboxylic acid]",850
13,"COc1ccc(-c2ccc(Oc3ccccc3Cl)c(NC(=O)Nc3cccc(C)c3)c2)cc1C(=O)O [Example 50, 4′-(2-chlorophenoxy)-4-methoxy-3′-(3-m-tolylureido)biphenyl-3-carboxylic acid]",900
14,"COc1ccc(-c2ccc(Oc3ccccc3Cl)c(NC(=O)Nc3ccc(C)cc3)c2)cc1C(=O)O [Example 51, 4′-(2-chlorophenoxy)-4-methoxy-3′-(3-p-tolylureido)biphenyl-3-carboxylic acid]",830
15,"CC(C)(C)c1ccccc1Oc1ccc(-c2cccc(C(=O)O)c2)cc1NC(=O)NC1CCCCC1 [Example 221, 4′-(2-tert-butylphenoxy)-3′-(3-cyclohexylureido) biphenyl-3-carboxylic acid]",1010
16,"CC(C)(C)c1ccccc1Oc1ccc(-c2cccc(C(=O)O)c2)cc1NC(=O)Nc1ccccc1 [Example 234, 4′-(2-tert-butylphenoxy)-3′-(3-phenylureido) biphenyl-3-carboxylic acid]",1850
17,"Cc1ccccc1NC(=O)Nc1cc(-c2cccc(C(=O)O)c2)ccc1Oc1cccc(Cl)c1 [Example 244, 4′-(3-chlorophenoxy)-3′-(3-o-tolylureido) biphenyl-3-carboxylic acid]",840
18,"4′-(2-(tert-butyl)phenoxy)-3′-(3-(4-chlorophenyl)ureido)-4-methoxy-[1,1′-biphenyl]-3-carboxylic acid [Example 106]",470
19,"CCNC(=O)Nc1cc(-c2cccc(C(=O)O)c2)ccc1Oc1ccccc1C(C)(C)C [Example 220, 4′-(2-tert-butylphenoxy)-3′-(3-ethylureido) biphenyl-3-carboxylic acid]",930

# Second part, the molecule after the results:
row,IC50 [nM],Molecule
1,210,"CC(C)(C)c1ccccc1Oc1ccc(-c2ccccc2-c2nnn[nH]2)cc1NC(=O)Nc1ccccc1Cl [Example 179, 1-(4-(2-tert-butylphenoxy)-2′-(1H-tetrazol-5-yl)biphenyl-3-yl)-3-(2-chlorophenyl)urea]"
2,340,COc1ccc(-c2cnc(Oc3ccccc3C(C)(C)C)c(NC(=O)Nc3ccc(C)cc3)c2)cc1C(=O)O [Example 335]
3,540,"CCc1ccccc1Oc1ccc(-c2ccc(OC)c(C(=O)O)c2)cc1NC(=O)Nc1ccc(C)cc1 [Example 47, 4′-(2-ethylphenoxy)-4-methoxy-3′-(3-p-tolylureido)biphenyl-3-carboxylic acid]"
4,130,"CCc1ccccc1Oc1ccc(-c2ccc(OC)c(C(=O)O)c2)cc1NC(=O)Nc1ccccc1C [Example 56, 4′-(2-ethylphenoxy)-4-methoxy-3′-(3-o-tolylureido)biphenyl-3-carboxylic acid]"
5,280,"COc1ccc(NC(=O)Nc2cc(-c3ccc(OC)c(C(=O)O)c3)ccc2Oc2ccccc2C(C)(C)C)cc1 [Example 87, 4′-(2-(tert-butyl)phenoxy)-3′-(3-(4-methoxyphenyl)ureido)-4-methoxy-[1,1′-biphenyl]-3-carboxylic acid]"
6,110,"COc1ccc(-c2ccc(Oc3ccccc3C(C)(C)C)c(NC(=O)Nc3cccc(Cl)c3)c2)cc1C(=O)O [Example 85, 4′-(2-(tert-butyl)phenoxy)-3′-(3-(3-chlorophenyl)ureido)-4-methoxy-[1,1′-biphenyl]-3-carboxylic acid]"
7,100,"COc1ccc(-c2ccc(Oc3ccccc3C(C)(C)C)c(NC(=O)Nc3cc(Cl)ccc3Cl)c2)cc1C(=O)O [Example 104, 4′-(2-(tert-butyl)phenoxy)-3′-(3-(2,5-dichlorophenyl)ureido)-4-methoxy-[1,1′-biphenyl]-3-carboxylic acid]"
8,30,"Cc1ccc(NC(=O)Nc2cc(-c3ccccc3-c3nnn[nH]3)ccc2Oc2ccccc2C(C)(C)C)cc1 [Example 4, 1-(4-(2-tert-Butylphenoxy)-2′-(1H-tetrazol-5-yl)biphenyl-3-yl)-3-p-tolylurea]"
9,370,"COc1ccc(-c2ccc(Oc3ccccc3C(C)(C)C)c(NC(=O)Nc3ccc(C)cc3)c2)cc1C(=O)O [Example 255, 4′-(2-tert-butylphenoxy)-4-methoxy-3′-(3-p-tolylureido) biphenyl-3-carboxylic acid]"
10,420,"CC(C)(C)c1ccccc1Oc1ccc(-c2cc(C(=O)O)ccc2F)cc1NC(=O)Nc1ccc(OC(F)(F)F)cc1 [Example 261, 4′-(2-tert-butylphenoxy)-6-fluoro-3′-(3-(4-(trifluoromethoxy)phenyl)ureido) biphenyl-3-carboxylic acid]"
11,180,"COc1ccc(-c2ccc(Oc3ccccc3C)c(NC(=O)Nc3ccccc3Cl)c2)cc1C(=O)O [Example 71, 3′-(3-(2-chlorophenyl)ureido)-4-methoxy-4′-(o-tolyloxy)biphenyl-3-carboxylic acid]"
12,470,"COc1ccc(-c2ccc(Oc3ccccc3C(C)(C)C)c(NC(=O)Nc3ccc(C)cc3F)c2)cc1C(=O)O [Example 100, 4′-(2-(tert-butyl)phenoxy)-3′-(3-(2-fluoro-4-methylphenyl)ureido)-4-methoxy-[1,1′-biphenyl]-3-carboxylic acid]"
13,390,"COc1ccc(-c2ccc(Oc3ccccc3C)c(NC(=O)Nc3cccc(C)c3)c2)cc1C(=O)O [Example 70, 4-methoxy-4′-(o-tolyloxy)-3′-(3-m-tolylureido)biphenyl-3-carboxylic acid]"
14,130,"COc1ccc(-c2ccc(Oc3ccccc3C(C)(C)C)c(NC(=O)NC(C)(C)C)c2)cc1C(=O)O [Example 88, 4′-(2-(tert-butyl)phenoxy)-3′-(3-(tert-butyl)ureido)-4-methoxy-[1,1′-biphenyl]-3-carboxylic acid]"
15,310,"COc1ccc(-c2ccc(Oc3c(C)cccc3C(C)(C)C)c(NC(=O)Nc3ccc(C)cc3)c2)cc1C(=O)O [Example 61, 4′-(2-tert-butyl-6-methylphenoxy)-4-methoxy-3′-(3-p-tolylureido)biphenyl-3-carboxylic acid]"
